# Data from the supplement of paper PMC10307832.
# How the values were obtained:
# Experiment in all cases: relative viability (nuclei count vs DMSO), 5 days (fraction); higher = more cells survive
# [1] = compound: Cn1c(Nc2ccc(C(F)(F)F)cc2)nc2cc(Oc3ccnc(-c4ncc(C(F)(F)F)[nH]4)c3)ccc21 [RAF265] + N=C(N)NC(=N)NCCc1ccccc1 [Phenformin] (partner 250 µM)
# Outline: (§1)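 Lung cancer cell lines, seeded in 1536-well plates, were treated the following day by pin tool with a single drug or with five library-drug doses (not always all listed) in √10 steps on top of a fixed anchor-drug dose. Cells were fixed and nuclei stained in one step after 5 days, and nuclei were counted. Relative viability is the nuclei count for treated wells divided by that for vehicle wells, reported as medians of duplicate plates.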
# [2] = compound: Cc1ccc(-n2nc(C(C)(C)C)cc2NC(=O)Nc2ccc(OCCN3CCOCC3)c3ccccc23)cc1 [Doramapimod] + Nc1ncn([C@H]2C[C@H](O)[C@@H](CO)O2)c(=O)n1 [Decitabine] (partner 2 µM)
# Outline: as §1
# [3] = compound: Cn1c(Nc2ccc(C(F)(F)F)cc2)nc2cc(Oc3ccnc(-c4ncc(C(F)(F)F)[nH]4)c3)ccc21 [RAF265] + CS(=O)(=O)N1CCN(Cc2cc3nc(-c4cccc5[nH]ncc45)nc(N4CCOCC4)c3s2)CC1 [Pictilisib] (partner 1 µM)
# Outline: as §1
# [4] = compound: C1=CC=C2C(=C1)C=CC(=C2SSC3=C(C=CC4=CC=CC=C43)O)O [IPA-3] + Cc1nc(NC(=O)N2CCC[C@H]2C(N)=O)sc1-c1ccnc(C(C)(C)C(F)(F)F)c1 [Alpelisib] (partner 2 µM)
# Outline: as §1
Cell Line,relative viability ([1]; first compound 0.01 µM),relative viability ([1]; first compound 0.03162 µM),relative viability ([1]; first compound 0.1 µM),relative viability ([1]; first compound 0.3162 µM),relative viability ([1]; first compound 1 µM),relative viability ([2]; first compound 0.02 µM),relative viability ([2]; first compound 0.06325 µM),relative viability ([2]; first compound 0.2 µM),relative viability ([2]; first compound 0.6325 µM),relative viability ([2]; first compound 2 µM),relative viability ([3]; first compound 0.01 µM),relative viability ([3]; first compound 0.03162 µM),relative viability ([3]; first compound 0.1 µM),relative viability ([3]; first compound 0.3162 µM),relative viability ([3]; first compound 1 µM),relative viability ([4]; first compound 0.2 µM),relative viability ([4]; first compound 0.6325 µM),relative viability ([4]; first compound 2 µM),relative viability ([4]; first compound 6.325 µM),relative viability ([4]; first compound 20 µM)
NCI-H522,0.677,0.648,0.655,0.33,0.569,0.751,0.7,0.626,0.683,0.577,–,–,–,–,–,–,–,–,–,–
NCI-H1944,0.192,0.202,0.184,0.168,0.143,0.459,0.491,0.447,0.423,0.414,0.339,0.343,0.334,0.293,0.258,0.836,0.832,0.958,0.942,0.983
NCI-H727,0.531,0.502,0.452,0.341,0.398,0.855,0.852,0.999,0.736,0.767,0.546,0.302,0.325,0.252,0.22,0.629,0.559,0.593,0.676,0.621
NCI-H1650,0.55,0.438,0.49,0.333,0.361,0.412,0.409,0.515,0.409,0.283,0.642,0.528,0.755,0.348,0.583,–,–,–,–,–
HCC-827,0.431,0.444,0.41,–,0.398,0.34,0.38,0.326,0.243,0.211,0.99,1.04,1.05,–,0.571,0.972,0.961,0.971,0.978,1.01
HCC-366,0.594,0.552,0.596,0.435,0.45,0.373,0.276,0.315,0.37,0.28,0.18,0.211,0.181,0.189,0.147,0.499,0.425,0.432,0.477,0.333
HARA,0.498,0.345,0.445,0.39,0.329,0.52,0.463,0.49,0.574,0.42,0.367,0.267,0.271,0.287,0.134,0.897,0.784,0.919,0.804,1.05
NCI-H322M,0.759,0.815,0.44,0.366,0.269,0.722,0.671,0.736,0.785,0.706,0.48,0.487,0.406,0.308,0.252,0.867,0.823,0.759,0.0386,0.901
LXF-289,0.52,0.526,0.476,0.372,0.338,0.374,0.393,0.354,0.373,0.351,0.857,0.655,0.577,0.361,0.374,1.08,0.978,1.03,1.02,1.13
PC-3 [JPC-3],0.457,0.502,0.469,–,0.465,0.834,0.816,0.857,0.888,0.766,0.686,0.676,0.727,0.333,0.417,1.04,1.05,1.04,0.972,1.08
CAL-12T,0.581,0.521,0.426,0.516,0.363,–,–,–,–,–,0.359,0.407,0.293,0.278,0.223,1.38,1.14,1.18,0.999,1.27
COR-L 105,0.463,0.621,0.457,0.3,0.358,0.602,0.641,0.718,0.802,0.676,0.487,0.316,0.383,0.292,0.307,0.998,0.964,1.17,0.859,1.11
NCI-H2347,0.338,0.426,0.394,0.218,0.166,0.671,0.604,0.626,0.656,0.634,0.789,0.952,0.652,0.629,0.245,1.12,0.941,0.928,1.08,1.01
NCI-H2126,0.508,0.551,0.558,0.512,0.459,0.561,0.57,0.543,0.614,0.55,0.5,0.491,0.491,0.405,0.415,0.762,0.73,0.699,0.727,0.928
NCI-H838,0.733,0.606,0.521,0.499,0.517,0.455,0.477,0.499,0.476,0.472,0.53,0.444,0.397,0.362,0.342,1.25,0.948,1.05,1.06,1.16
A549,0.148,0.123,0.201,0.0774,0.0726,0.235,0.309,0.312,0.175,0.278,0.476,0.498,0.391,0.235,0.0846,0.926,0.705,0.838,0.753,0.745
NCI-H1648,–,–,–,–,–,0.465,0.544,0.452,0.402,0.389,–,–,–,–,–,–,–,–,–,–

Cell Line,relative viability ([1]; first compound 0.01 µM),relative viability ([1]; first compound 0.03162 µM),relative viability ([1]; first compound 0.1 µM),relative viability ([1]; first compound 0.3162 µM),relative viability ([1]; first compound 1 µM),relative viability ([2]; first compound 0.02 µM),relative viability ([2]; first compound 0.06325 µM),relative viability ([2]; first compound 0.2 µM),relative viability ([2]; first compound 0.6325 µM),relative viability ([2]; first compound 2 µM),relative viability ([3]; first compound 0.01 µM),relative viability ([3]; first compound 0.03162 µM),relative viability ([3]; first compound 0.1 µM),relative viability ([3]; first compound 0.3162 µM),relative viability ([3]; first compound 1 µM),relative viability ([4]; first compound 0.2 µM),relative viability ([4]; first compound 0.6325 µM),relative viability ([4]; first compound 2 µM),relative viability ([4]; first compound 6.325 µM),relative viability ([4]; first compound 20 µM)
NCI-H1623,0.652,0.578,0.646,–,0.388,–,–,–,–,–,–,–,–,–,–,–,–,–,–,–
SK-LU-1,0.543,0.377,0.385,0.26,0.234,0.636,0.617,0.662,0.637,0.592,0.688,0.422,0.41,0.297,0.27,1.49,–,0.974,0.859,0.739
NCI-H2085,0.858,0.683,0.742,0.642,0.644,0.612,0.526,0.563,0.584,0.56,0.407,0.478,0.502,0.437,0.368,1.07,0.919,0.989,0.949,0.984
NCI-H460,0.529,0.463,0.483,0.399,0.394,0.499,0.434,0.487,0.553,0.46,0.5,0.455,0.403,0.201,0.179,0.711,0.409,0.46,0.479,0.426
Calu-6,–,–,–,–,–,–,–,–,–,–,0.87,0.594,0.462,0.306,0.209,1.08,1.01,1.01,0.928,0.924
RERF-LC-KJ,0.469,0.42,0.389,0.408,0.376,0.733,0.669,0.663,0.684,0.669,0.49,0.236,0.545,0.42,0.23,0.933,0.807,0.83,0.668,0.928
LCLC-103H,0.333,0.346,0.305,0.319,0.285,0.714,0.704,0.719,0.742,0.654,0.616,0.615,0.638,0.431,0.422,0.926,0.806,0.81,0.943,1.02
NCI-H1563,0.676,0.674,0.66,0.64,0.623,–,–,–,–,–,0.648,0.742,0.626,0.604,0.718,0.987,0.982,1.06,0.949,1.07
NCI-H2342,0.502,0.617,0.679,0.468,0.549,0.653,0.807,0.686,0.673,0.74,–,–,–,–,–,–,–,–,–,–
NCI-H1299,–,–,–,–,–,–,–,–,–,–,0.683,0.407,0.223,0.246,0.198,1.07,1.07,1.02,1.07,1.06
ChaGo-K-1,0.519,0.511,0.392,0.405,0.382,0.555,0.54,0.541,0.49,0.503,0.786,0.833,0.8,0.765,0.56,–,–,–,–,–
SW 900,0.73,0.491,0.665,0.283,0.293,0.355,0.439,0.36,0.405,0.437,–,–,–,–,–,–,–,–,–,–
EBC-1,–,–,–,–,–,–,–,–,–,–,0.375,0.386,0.233,0.317,0.221,0.992,0.73,0.821,0.811,0.475
NCI-H2228,0.287,0.387,0.357,0.203,0.186,–,–,–,–,–,0.539,0.371,0.465,0.208,0.255,0.948,0.785,0.884,0.68,0.51
IA-LM,–,–,–,–,–,–,–,–,–,–,0.334,0.402,0.341,0.336,0.186,0.884,0.735,0.731,0.703,0.738
NCI-H1703,–,–,–,–,–,–,–,–,–,–,0.239,0.214,0.218,0.238,0.196,0.362,0.289,0.304,0.301,0.397
